Source: PubChem BioAssay (NCI)
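GI50 marks 50% less growth. TGI: concentration producing complete growth inhibition.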

Key:
Experiment in all cases: NCI anticancer screen, dose series, 384-well format
786-0 renal = tested on: 786-0 renal
A498 renal = tested on: A498 renal
A549 NSCLC = tested on: A549 NSCLC
ACHN renal = tested on: ACHN renal
BT-549 breast = tested on: BT-549 breast
CAKI-1 renal = tested on: CAKI-1 renal
CCRF-CEM leukemia = tested on: CCRF-CEM leukemia
COLO 205 colon = tested on: COLO 205 colon
DU-145 prostate = tested on: DU-145 prostate
EKVX NSCLC = tested on: EKVX NSCLC
HCC-2998 colon = tested on: HCC-2998 colon
HCT-116 colon = tested on: HCT-116 colon
HCT-15 colon = tested on: HCT-15 colon
HL-60(TB) leukemia = tested on: HL-60(TB) leukemia
HOP-62 NSCLC = tested on: HOP-62 NSCLC
HOP-92 NSCLC = tested on: HOP-92 NSCLC
HS 578T breast = tested on: HS 578T breast
HT29 colon = tested on: HT29 colon
IGROV1 ovarian = tested on: IGROV1 ovarian
K-562 leukemia = tested on: K-562 leukemia
KM12 colon = tested on: KM12 colon
LOX IMVI melanoma = tested on: LOX IMVI melanoma
M14 melanoma = tested on: M14 melanoma
MALME-3M melanoma = tested on: MALME-3M melanoma
MCF7 breast = tested on: MCF7 breast
MDA-MB-231 breast = tested on: MDA-MB-231 breast
MDA-MB-435 melanoma = tested on: MDA-MB-435 melanoma
MDA-MB-468 breast = tested on: MDA-MB-468 breast
MOLT-4 leukemia = tested on: MOLT-4 leukemia
NCI-H226 lung = tested on: NCI-H226 lung
NCI-H23 lung = tested on: NCI-H23 lung
NCI-H322M lung = tested on: NCI-H322M lung
NCI-H460 NSCLC = tested on: NCI-H460 NSCLC
NCI-H522 lung = tested on: NCI-H522 lung
NCI/ADR-RES ovarian = tested on: NCI/ADR-RES ovarian
OVCAR-3 ovarian = tested on: OVCAR-3 ovarian
OVCAR-4 ovarian = tested on: OVCAR-4 ovarian
OVCAR-5 ovarian = tested on: OVCAR-5 ovarian
OVCAR-8 ovarian = tested on: OVCAR-8 ovarian
PC-3 prostate = tested on: PC-3 prostate
RPMI-8226 leukemia = tested on: RPMI-8226 leukemia
RXF 393 renal = tested on: RXF 393 renal
SF-268 CNS = tested on: SF-268 CNS
SF-295 CNS = tested on: SF-295 CNS
SF-539 CNS = tested on: SF-539 CNS
SK-MEL-2 melanoma = tested on: SK-MEL-2 melanoma
SK-MEL-28 melanoma = tested on: SK-MEL-28 melanoma
SK-MEL-5 melanoma = tested on: SK-MEL-5 melanoma
SK-OV-3 ovarian = tested on: SK-OV-3 ovarian
SN12C renal = tested on: SN12C renal
SNB-19 CNS = tested on: SNB-19 CNS
SNB-75 CNS = tested on: SNB-75 CNS
SR leukemia = tested on: SR leukemia
SW-620 colon = tested on: SW-620 colon
T-47D breast = tested on: T-47D breast
TK-10 renal = tested on: TK-10 renal
U251 glioblastoma = tested on: U251 glioblastoma
UACC-257 melanoma = tested on: UACC-257 melanoma
UACC-62 melanoma = tested on: UACC-62 melanoma
UO-31 renal = tested on: UO-31 renal

O=C(/C=C\n1cnc(-c2cc(C(F)(F)F)cc(C(F)(F)F)c2)n1)NNc1cnccn1 was tested, and the GI50 ([…]-0 renal) was 59.8 nM, the TGI (786-0 renal) was 3310 nM and the GI50 (A498 renal) was 72.8 nM. It also gave a TGI (A498 renal) of 1540 nM, a GI50 (A549 NSCLC) of 109 nM and a TGI (A549 NSCLC) of 5620 nM. For the same compound, the GI50 (ACHN renal) was 250 nM, the TGI (ACHN renal) was 5390 nM and the GI50 (BT-549 breast) was 19.9 nM. The TGI (BT-549 breast) was 62.1 nM, the GI50 (CAKI-1 renal) was 99.7 nM and the TGI (CAKI-1 renal) was 13100 nM. For the same compound, the GI50 (CCRF-CEM leukemia) was 91 nM, the TGI (CCRF-CEM leukemia) was 390 nM and the GI50 (COLO 205 colon) was 84.2 nM. For the same compound, the TGI (COLO 205 colon) was 4600 nM, the GI50 (DU-145 prostate) was 274 nM and the TGI (DU-145 prostate) was 1220 nM. It also gave a GI50 (EKVX NSCLC) of 1340 nM, a TGI (EKVX NSCLC) of 13100 nM and a GI50 (HCC-2998 colon) of 46.3 nM. The TGI (HCC-2998 colon) was 530 nM, the GI50 (HCT-116 colon) was 60.8 nM and the TGI (HCT-116 colon) was 504 nM. It also gave a GI50 (HCT-15 colon) of 152 nM, a TGI (HCT-15 colon) of 1310 nM and a GI50 (HL-60(TB) leukemia) of 41 nM. It also gave a TGI (HL-60(TB) leukemia) of 185 nM, a GI50 (HOP-62 NSCLC) of 166 nM and a TGI (HOP-62 NSCLC) of 1170 nM. The GI50 (HOP-92 NSCLC) was 194 nM, the TGI (HOP-92 NSCLC) was 4360 nM and the GI50 (HS 578T breast) was 41.1 nM. It also gave a TGI (HS 578T breast) of 281 nM, a GI50 (HT29 colon) of 213 nM and a TGI (HT29 colon) of 6540 nM. For the same compound, the GI50 (IGROV1 ovarian) was 424 nM, the TGI (IGROV1 ovarian) was 7510 nM and the GI50 (K-562 leukemia) was 41.7 nM. For the same compound, the TGI (K-562 leukemia) was 289 nM, the GI50 (KM12 colon) was 442 nM and the TGI (KM12 colon) was 3860 nM. It also gave a GI50 (LOX IMVI melanoma) of 144 nM, a TGI (LOX IMVI melanoma) of 555 nM and a GI50 (M14 melanoma) of 353 nM. It also gave a TGI (M14 melanoma) of 1670 nM, a GI50 (MALME-3M melanoma) of 142 nM and a TGI (MALME-3M melanoma) of 1170 nM. It also gave a GI50 (MCF7 breast) of 58 nM, a TGI (MCF7 breast) of 2150 nM and a GI50 (MDA-MB-231 breast) of 51.7 nM. For the same compound, the TGI (MDA-MB-231 breast) was 244 nM, the GI50 (MDA-MB-435 melanoma) was 177 nM and the TGI (MDA-MB-435 melanoma) was 721 nM. The GI50 (MDA-MB-468 breast) was 90.3 nM, the TGI (MDA-MB-468 breast) was 249 nM and the GI50 (MOLT-4 leukemia) was 16.3 nM. For the same compound, the TGI (MOLT-4 leukemia) was 31.1 nM, the GI50 (NCI-H226 lung) was 33.8 nM and the TGI (NCI-H226 lung) was 858 nM. It also gave a GI50 (NCI-H23 lung) of 54.8 nM, a TGI (NCI-H23 lung) of 889 nM and a GI50 (NCI-H322M lung) of 213 nM. It also gave a TGI (NCI-H322M lung) of 5260 nM, a GI50 (NCI-H460 NSCLC) of 48.3 nM and a TGI (NCI-H460 NSCLC) of 337 nM. For the same compound, the GI50 (NCI-H522 lung) was 61.1 nM, the TGI (NCI-H522 lung) was 304 nM and the GI50 (NCI/ADR-RES ovarian) was 89.1 nM. For the same compound, the TGI (NCI/ADR-RES ovarian) was 1570 nM, the GI50 (OVCAR-3 ovarian) was 57.6 nM and the TGI (OVCAR-3 ovarian) was 463 nM. It also gave a GI50 (OVCAR-4 ovarian) of 316 nM, a TGI (OVCAR-4 ovarian) of 1040 nM and a GI50 (OVCAR-5 ovarian) of 342 nM. The TGI (OVCAR-5 ovarian) was 9930 nM, the GI50 (OVCAR-8 ovarian) was 70.6 nM and the TGI (OVCAR-8 ovarian) was 936 nM. For the same compound, the GI50 (PC-3 prostate) was 57.6 nM, the TGI (PC-3 prostate) was 999 nM and the GI50 (RPMI-8226 leukemia) was 19.6 nM. The TGI (RPMI-8226 leukemia) was 64.9 nM, the GI50 (RXF 393 renal) was 21.6 nM and the TGI (RXF 393 renal) was 82.7 nM. For the same compound, the GI50 (SF-268 CNS) was 40.7 nM, the TGI (SF-268 CNS) was 310 nM and the GI50 (SF-295 CNS) was 86 nM. The TGI (SF-295 CNS) was 1050 nM, the GI50 (SF-539 CNS) was 26.2 nM and the TGI (SF-539 CNS) was 86 nM. For the same compound, the GI50 (SK-MEL-2 melanoma) was 119 nM, the TGI (SK-MEL-2 melanoma) was 282 nM and the GI50 (SK-MEL-28 melanoma) was 192 nM. The TGI (SK-MEL-28 melanoma) was 1380 nM, the GI50 (SK-MEL-5 melanoma) was 143 nM and the TGI (SK-MEL-5 melanoma) was 675 nM. The GI50 (SK-OV-3 ovarian) was 919 nM, the TGI (SK-OV-3 ovarian) was 13600 nM and the GI50 (SN12C renal) was 655 nM. The TGI (SN12C renal) was 5870 nM, the GI50 (SNB-19 CNS) was 451 nM and the TGI (SNB-19 CNS) was 8540 nM. For the same compound, the GI50 (SNB-75 CNS) was 77 nM, the TGI (SNB-75 CNS) was 422 nM and the GI50 (SR leukemia) was 13.7 nM. For the same compound, the TGI (SR leukemia) was 29.8 nM, the GI50 (SW-620 colon) was 81.8 nM and the TGI (SW-620 colon) was 7100 nM. The GI50 (T-47D breast) was 165 nM, the TGI (T-47D breast) was 4110 nM and the GI50 (TK-10 renal) was 126 nM. The TGI (TK-10 renal) was 13200 nM, the GI50 (U251 glioblastoma) was 88.9 nM and the TGI (U251 glioblastoma) was 816 nM. The GI50 (UACC-257 melanoma) was 977 nM, the TGI (UACC-257 melanoma) was 8460 nM and the GI50 (UACC-62 melanoma) was 106 nM. The TGI (UACC-62 melanoma) was 418 nM, the GI50 (UO-31 renal) was 466 nM and the TGI (UO-31 renal) was 4410 nM.

Nc1ncn(C2CC(O)C(CO)O2)c(=O)n1 (centres undefined) gave a GI50 (ACHN renal) of 7840 nM, a GI50 (CCRF-CEM leukemia) of 706 nM and a GI50 (COLO 205 colon) of 65600 nM. For the same compound, the GI50 (HCT-15 colon) was > 31200 nM, the GI50 (HL-60(TB) leukemia) was 629 nM and the GI50 (K-562 leukemia) was 1280 nM. The GI50 (MDA-MB-468 breast) was < 18.3 nM, the TGI (MDA-MB-468 breast) was 53.2 nM and the GI50 (MOLT-4 leukemia) was 39.7 nM. For the same compound, the GI50 (NCI-H460 NSCLC) was 1980 nM, the GI50 (OVCAR-8 ovarian) was > 32900 nM and the GI50 (RPMI-8226 leukemia) was 225 nM. For the same compound, the GI50 (SK-MEL-5 melanoma) was 705 nM and the GI50 (SR leukemia) was 2920 nM.
